Results as given in paper PMC7236970 (Clinical Epigenetics, 2020).

Legend:
[1] = tested on: Acetyl α-tubulin; experiment: Western blot of α-tubulin acetylation in K-562 cells; assay type: cell-based, human; details: for effect on α-tubulin acetylation (in words): increasing concentrations
Procedure: (§1) Cells were lyzed in 10% (v/v) Mammalian Protein Extraction Reagent solution (MPER®; Thermofisher, Erembodegen, Belgium) supplemented with 1× protease inhibitor cocktail (Complete EDTA-free, Roche) according to the manufacturer’s instructions. Histone enrichment was performed in acidic conditions as previously described. The protein concentration was determined using the Bradford assay (BioRad).

[2] = tested on: K-562 cells; experiment: Cell proliferation and viability, Trypan Blue exclusion; assay type: cell-based, human; details: for concentration from which cell death was triggered / cell viability decreased / concentration from which cell proliferation was reduced: K-562, 48 h
Procedure: (§4) Cell viability and proliferation were evaluated using the Trypan Blue exclusion method (BioWhittaker ®). Cells were processed using a semi-automated image-based cell analyzer (Cedex XS Innovatis, Roche, Luxembourg, Luxembourg), which provided the cell number as well as cell viability based on the fraction of trypan blue-positive cells.

[3] = tested on: total HDAC; experiment: In vitro HDAC activity assay, total HDAC; assay type: biochemical; details: for IC50: read-out: IC50 values against total HDAC activity; for total HDAC activity remaining: 2 μM SAHA or 0.1 μM MAKV-8
Procedure: (§2) In vitro HDAC activities were measured as previously described. IC50 values against the various HDAC activities were determined using nonlinear regression in Prism 8.0 software (GraphPad Software, Inc., La Jolla, CA, USA).

[4] = tested on: Acetyl histone H4; experiment: Western blot of histone H4 acetylation in K-562 cells; assay type: cell-based, human; details: for effect on histone H4 acetylation (in words): increasing concentrations
Procedure: as §1

[5] = tested on: K-562 cells; experiment: Cyto-ID quantification of autophagic vesicles; assay type: cell-based, human; details: K-562, 8 h, Cyto-ID staining
Procedure: For fluorescence microscopy, the Cyto-ID® Autophagy Detection Kit (Enzo Life Science) was used according to the manufacturer’s instructions. […] Green fluorescent autophagy-related organelles (pre-autophagosomes, autophagosomes, and autophagolysosomes) were quantified as green signal area per cell nucleus as advised by the manufacturer. Segmentation of these areas was based on 31 parameters assessing color, texture, and edge and was carried out in Ilastik, version 1.3.0 developed by the European Molecular Biology Laboratory, Heidelberg. Classifiers trained for these parameters on a set of representative images were then applied to batch process multiple images as described in Ilastik’s user manual. Binary masks thus obtained were measured in FIJI [59] after applying a size filter to remove small size artifacts resulting from segmentation.

[6] = molecular target: T1, recombinant HDAC6 (Homo sapiens, UniProt Q9UBN7); experiment: In vitro HDAC activity assay, recombinant HDAC6; assay type: biochemical; details: read-out: IC50 recombinant HDAC6 deacetylase activity
T1 sequence (Q9UBN7 1-1215): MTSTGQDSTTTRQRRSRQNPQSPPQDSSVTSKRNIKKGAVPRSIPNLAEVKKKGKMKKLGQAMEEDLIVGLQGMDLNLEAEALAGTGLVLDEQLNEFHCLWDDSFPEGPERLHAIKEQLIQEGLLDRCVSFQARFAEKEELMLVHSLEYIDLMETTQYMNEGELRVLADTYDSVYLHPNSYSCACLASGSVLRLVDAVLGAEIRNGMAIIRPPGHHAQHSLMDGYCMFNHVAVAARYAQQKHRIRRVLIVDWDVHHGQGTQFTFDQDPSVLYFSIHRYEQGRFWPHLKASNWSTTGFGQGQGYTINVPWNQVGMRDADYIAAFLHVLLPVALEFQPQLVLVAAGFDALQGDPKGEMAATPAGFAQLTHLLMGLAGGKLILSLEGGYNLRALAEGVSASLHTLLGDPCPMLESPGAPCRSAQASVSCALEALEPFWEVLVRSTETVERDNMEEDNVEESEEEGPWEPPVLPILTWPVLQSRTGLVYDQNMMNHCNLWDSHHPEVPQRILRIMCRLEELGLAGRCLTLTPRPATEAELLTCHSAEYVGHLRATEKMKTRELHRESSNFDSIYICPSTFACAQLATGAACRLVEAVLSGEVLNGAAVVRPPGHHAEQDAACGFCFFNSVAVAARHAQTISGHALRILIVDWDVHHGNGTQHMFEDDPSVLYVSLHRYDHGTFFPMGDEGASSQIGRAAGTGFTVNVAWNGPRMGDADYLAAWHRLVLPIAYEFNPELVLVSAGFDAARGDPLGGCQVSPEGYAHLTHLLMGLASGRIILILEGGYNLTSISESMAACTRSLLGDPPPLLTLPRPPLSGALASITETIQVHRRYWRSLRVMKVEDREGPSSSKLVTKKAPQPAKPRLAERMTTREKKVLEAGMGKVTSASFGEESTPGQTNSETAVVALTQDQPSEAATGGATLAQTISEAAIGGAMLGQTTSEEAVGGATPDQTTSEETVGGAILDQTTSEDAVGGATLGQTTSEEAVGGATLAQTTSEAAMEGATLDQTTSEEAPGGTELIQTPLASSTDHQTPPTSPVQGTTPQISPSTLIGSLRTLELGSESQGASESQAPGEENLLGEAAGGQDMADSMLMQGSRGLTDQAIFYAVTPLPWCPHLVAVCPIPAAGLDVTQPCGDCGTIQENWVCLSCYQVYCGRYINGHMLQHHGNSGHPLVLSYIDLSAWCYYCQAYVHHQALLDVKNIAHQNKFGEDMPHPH
Procedure: as §2

[7] = tested on: RPMI-1788 cells; experiment: Healthy cell model viability, nuclear morphology; assay type: cell-based, human; details: RPMI-1788, 48 h, 10 μM MAKV-8
Excerpt: PBMCs were isolated from the blood of healthy adult human donors obtained from the Red Cross (Luxembourg, Luxembourg) and purified as previously reported [43]. […] Platelets from healthy adult human donors were provided by the Red Cross.

[8] = tested on: K-562 cells xenografted in zebrafish; experiment: Zebrafish cancer cell xenograft; assay type: in vivo; details: K-562 cells treated 24 h, injected into zebrafish yolk sac, three days post-injection
Procedure: Cancer xenograft assays in zebrafish were performed as previously described using cells stained with 2 μM CM-Dil (Invitrogen) and diluted in 1× PBS supplemented with 1% phenol red sodium salt solution.

[9] = tested on: HDAC6; set-up: method as in PMID 18642892; details: in vitro; read-out: IC50 towards HDAC6; cited from earlier work
[10] = tested on: PBMCs; experiment: Healthy cell viability, Trypan Blue exclusion; details: 48 h
Procedure: (§5) PBMCs were isolated from the blood of healthy adult human donors obtained from the Red Cross (Luxembourg, Luxembourg) and purified as previously reported [43].
as §4

[11] = molecular target: recombinant HDAC1 (Homo sapiens, UniProt Q13547); experiment: In vitro HDAC activity assay, recombinant HDAC1; assay type: biochemical; details: read-out: IC50 recombinant HDAC1 deacetylase activity
Procedure: as §2

[12] = tested on: MEG-01 cells; experiment: Cell proliferation and viability, Trypan Blue exclusion; assay type: cell-based, human
Procedure: as §4

[13] = tested on: KBM-5 cells; experiment: as above; assay type: cell-based, human
Procedure: as §4

[14] = tested on: HDAC3; set-up: method as in PMID 18642892; details: in vitro; read-out: IC50 towards HDAC3; cited from earlier work
[15] = tested on: KBM-5 cells; experiment: Colony formation assay in methylcellulose; assay type: cell-based, human; details: KBM-5, 10 days
Procedure: (§3) For colony formation assays, 1000 cells were grown in 1 mL of semi-solid methylcellulose medium (Methocult H4230, StemCell Technologies Inc., Grenoble, France) supplemented with 10% heat-inactivated FCS (BioWhittaker ®) in 12-well plates. Colonies were detected after 10 days of culturing by adding 5 mg/mL 3-(4,5-dimethylthiazol-2-yl)-2,5-diphenyltetrazoliumbromide (MTT) reagent (Sigma-Aldrich) and incubating for 15 min at 37 °C. Pictures were taken with the GelDoc XR+ System (BioRad, Temse, Belgium), and quantifications were conducted using Image J software (US National Institute of Health, Bethesda, MD, USA).

[16] = tested on: MEG-01 cells; experiment: Colony formation assay in methylcellulose; assay type: cell-based, human; details: MEG-01, 10 days
Procedure: as §3

[17] = tested on: K-562 cells; experiment: Colony formation assay in methylcellulose; assay type: cell-based, human; details: K-562, 10 days
Procedure: as §3

[18] = tested on: platelets; experiment: Platelet viability, flow cytometry after Annexin V staining; assay type: cell-based, human; details: 48 h
Procedure: Phosphatidylserine exposure was evaluated using the FITC Annexin V Apoptosis Detection Kit I (BD Biosciences) according to the supplier’s instructions. Stained samples were processed through a cytometer (FACS Calibur, BD Biosciences), and data were recorded statistically (10,000 events/sample) using the CellQuest Pro software (BD, Biosciences). Data were analyzed using the Flow-Jo 8.8.5 software.

[19] = tested on: K-562 cells; experiment: Cellular ALDH activity (ALDEFLUOR), ALDH+ LSC fraction; assay type: cell-based, human; details: K-562, 24 h; for ALDH+ cell percentage: untreated cells 50%
Procedure: Cellular ALDH activity was assessed using the ALDEFLUOR^TM kit (StemCell Technologies Inc.) according to the manufacturer’s procedure. Diethylaminobenzaldehyde, a specific inhibitor of ALDH activity, was used to differentiate cells with low or high ALDH activity.

[20] = tested on: PBMCs
Procedure: as §5, §4

Chain of recombinant HDAC1 (Q13547 whole entry): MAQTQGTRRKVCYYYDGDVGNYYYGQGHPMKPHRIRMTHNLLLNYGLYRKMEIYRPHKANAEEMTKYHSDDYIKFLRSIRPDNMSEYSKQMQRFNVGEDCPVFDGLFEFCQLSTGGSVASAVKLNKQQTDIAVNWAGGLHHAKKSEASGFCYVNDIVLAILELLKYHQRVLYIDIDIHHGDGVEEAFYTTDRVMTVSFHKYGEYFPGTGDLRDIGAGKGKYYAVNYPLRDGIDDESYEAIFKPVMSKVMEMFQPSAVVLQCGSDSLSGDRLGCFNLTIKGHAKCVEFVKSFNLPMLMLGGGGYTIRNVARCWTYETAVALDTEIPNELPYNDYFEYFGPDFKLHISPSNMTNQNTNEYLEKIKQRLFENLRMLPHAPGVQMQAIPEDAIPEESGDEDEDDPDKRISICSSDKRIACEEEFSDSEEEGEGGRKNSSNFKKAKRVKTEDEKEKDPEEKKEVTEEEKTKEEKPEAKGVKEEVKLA

CC(C)(C)OC(=O)Nc1cccc(-c2cc(C(=O)NO)no2)c1 [MAKV-6]
effect on α-tubulin acetylation (in words) ([1]; 24 h): failed to increase α-tubulin acetylation | concentration from which cell death was triggered / cell viability decreased [2]: ≥ 25 µM | concentration from which cell proliferation was reduced [2]: ≥ 5 µM | IC50 values against total HDAC activities (in words) ([3]; in vitro): low micromolar range | IC50 ([3]; in vitro): 1.05 ± 0.22 µM | effect on histone H4 acetylation (in words) ([4]; 24 h): increased histone H4 acetylation only at the highest concentrations

CC(C)(C)OC(=O)Nc1ccc(-c2cc(C(=O)NO)no2)cc1 [MAKV-7]
effect on α-tubulin acetylation (in words) ([1]; 24 h): failed to increase α-tubulin acetylation | concentration from which cell death was triggered / cell viability decreased [2]: ≥ 25 µM | concentration from which cell proliferation was reduced [2]: ≥ 10 µM | IC50 values against total HDAC activities (in words) ([3]; in vitro): low micromolar range | IC50 ([3]; in vitro): 22 µM | effect on histone H4 acetylation (in words) ([4]; 24 h): increased histone H4 acetylation only at the highest concentrations

CC(C)(C)OC(=O)Nc1cccc(-c2cc(C(=O)NCCCCCCC(=O)NO)no2)c1 [MAKV-8]
time at which increase in α-tubulin acetylation begins ([1]; 15 µM MAKV-8): ≥ 2 h | concentration from which α-tubulin acetylation was induced ([1]; 24 h): ≥ 5 µM | EC50 ([1]; Homo sapiens, K562, 24 h, western blot quantification, read-out: EC50 half-maximal acetylation of α-tubulin): 12.1 ± 0.9 µM | autophagic signal area per nucleus compared to controls [5]: about 1.5 times | IC50 [6]: 11.4 nM | reduction of living cells [7]: about 55% | concentration from which cell death was triggered / cell viability decreased [2]: ≥ 10 µM | concentration from which cell growth was inhibited ([2]; K-562, up to 72 h): about 3 μM | tumor formation / tumor volume (in words) [8]: unable to significantly reduce tumor volumes | IC50 [9]: 2 pM | total HDAC activity remaining [3]: about 10% | potency as pan-HDACi relative to SAHA ([3]; in vitro): 10 times | IC50 ([3]; in vitro): 0.0058 ± 0.0038 µM | maximum decrease of viable cells [10]: ≤ 30% | IC50 [11]: 2.6 nM | time at which increase in histone H4 acetylation begins ([4]; 15 µM MAKV-8): ≥ 2 h | concentration from which histone H4 acetylation was induced ([4]; 24 h): ≥ 1 µM | EC50 ([4]; Homo sapiens, K562, 24 h, western blot quantification, read-out: EC50 half-maximal acetylation of histone H4): 5.9 ± 1.4 µM | concentration from which cell death was triggered ([12]; MEG-01, 48 h): ≥ 10 µM | concentration from which cell growth was inhibited ([12]; MEG-01, up to 72 h): about 3 μM | concentration from which cell death was triggered ([13]; KBM-5, 48 h): ≥ 10 µM | concentration from which cell growth was inhibited ([13]; KBM-5, up to 72 h): about 3 μM | IC50 [14]: 2 pM | concentration from which colony formation (replicative ability, 3D model) was strongly reduced [15]: ≥ 10 µM | concentration from which colony formation (replicative ability, 3D model) was strongly reduced [16]: ≥ 5 µM | concentration from which colony formation (replicative ability, 3D model) was strongly reduced [17]: ≥ 5 µM | cytotoxicity in platelets (in words) [18]: neither alone nor in co-treatments elicited any significant cytotoxicity in platelets | ALDH+ cell percentage [19]: 24%

COC(=O)CCCCCCNC(=O)c1cc(-c2cccc(NC(=O)OC(C)(C)C)c2)on1 [MAKV-10]
effect on α-tubulin acetylation (in words) ([1]; 24 h): did not augment protein target acetylation levels | effect on cell proliferation and viability (in words) ([2]; K-562, up to 72 h): neither MAKV-10 nor MAKV-12 impacted K-562 cell proliferation and viability | concentration up to which HDAC activities were not inhibited ([3]; in vitro): > 100 µM | IC50 ([3]; in vitro): > 100 µM | effect on histone H4 acetylation (in words) ([4]; 24 h): did not augment protein target acetylation levels

COC(=O)CCCCCCNC(=O)c1cc(-c2cccc(N)c2)on1 [MAKV-12]
effect on α-tubulin acetylation (in words) ([1]; 24 h): did not augment protein target acetylation levels | effect on cell proliferation and viability (in words) ([2]; K-562, up to 72 h): neither MAKV-10 nor MAKV-12 impacted K-562 cell proliferation and viability | concentration up to which HDAC activities were not inhibited ([3]; in vitro): > 100 µM | IC50 ([3]; in vitro): > 100 µM | effect on histone H4 acetylation (in words) ([4]; 24 h): did not augment protein target acetylation levels

O=C(CCCCCCC(=O)Nc1ccccc1)NO [SAHA, suberoylanilide hydroxamic acid, reference compound]
total HDAC activity remaining [3]: about 10% | effect on ALDH+ cell proportion (in words) [19]: failed to reduce the ALDH^+ cell proportion

Cc1ccc(NC(=O)c2ccc(CN3CCN(C)CC3)cc2)cc1Nc1nccc(-c2cccnc2)n1 [imatinib]
cell mortality (in words) [20]: failed to trigger any cell mortality | ALDH+ cell percentage [19]: 30%
